Structures are written as SMILES. Values joined by “and” are separate entries in the source; they are usually repeats but may differ in a detail not shown here. Identical values can stand only once. Like-named read-outs stand apart in the source and are kept apart here. A value given as a limit tells only on which side of the number the result lay.

For data set [1], the system named is p53 signaling (p53RE-bla HCT-116 cells). Nature of the data set: cells. As to conditions: for EC50 / Emax: Homo sapiens; for EC50: HCT-116; for Emax: HCT-116, read-out: efficacy. The data set is classed as cell-based. Also on record: efficacy: unit not given here.
Data set [2] has the same test system. In words: cells. It is filed as cell-based.
A further data set is described as follows: in vitro. As to conditions: male, Sprague Dawley, rat, microsomes, pH 7.4.
In data set [3] the test system is p53 signaling (p53RE-bla HCT-116 cells). Nature of the data set: cells. The data set is classed as cell-based. This is another data set of the same source.
Data set [4] has the same test system.
Data set [5] shares this test system. In words: cells. As to conditions: Homo sapiens.
The conditions of data set [6]: rat.
Data set [7] concerns p53 signaling (p53RE-bla HCT-116 cells). Nature of the data set: cells. The conditions noted are these: Homo sapiens. The source holds these as a separate data set.
Data set [8] shares this test system. This is another data set of the same source.
[9] abbreviates: HCT-116, read-out: p53 activation EC50, cherry pick confirmation.
Setting [10] is: HCT-116, read-out: p53 activation efficacy, cherry pick confirmation.
Setting [11] is: HCT-116, read-out: p53 activation EC50, HLM.

The term EC50 denotes the concentration needed to bring the measured effect to its halfway point. As a reminder, the half-life is the time in which the quantity being followed falls by half. In the case of `Cc1cc(=O)oc2cc(O)ccc12` [4-Methylumbelliferone], the “EC50, viability, cherry pick confirmation” value with p53RE-bla HCT-116 cells was “inactive”. In addition, the “EC50, viability, primary screening” value in the data set on p53RE-bla HCT-116 cells is “inactive”. Besides, in the data set with p53RE-bla HCT-116 cells, the “Efficacy, viability, cherry pick confirmation” value was “inactive”. Moreover, the “Efficacy, viability, primary screening” value with p53RE-bla HCT-116 cells was “inactive”. The EC50 in [1] is 24.2 µM; in data set [2] (Homo sapiens, HCT-116, read-out: EC50, p53 activation, cherry pick confirmation), 18.2 µM; in [3], “Inactive”; in data set [5] (HCT-116), 25.2 µM; in data set [5] (HCT-116, read-out: EC50, p53 activation, cherry pick confirmation), 25.9 µM. Besides, the Emax was 114% in data set [1]; 30% in [2] (Homo sapiens, HCT-116, read-out: Efficacy, p53 activation, cherry pick confirmation); 89.9% in data set [5] (HCT-116, read-out: Efficacy, p53 activation, cherry pick confirmation); 99.5% in [5] (HCT-116, read-out: efficacy). Moreover, the “EC50, p53 activation, primary screening” value in [2] was “inactive”. In [2], the “Efficacy, p53 activation, primary screening” value is “inactive”. This compound yielded a half-life in “in vitro” of 19.1 min. The “EC50, p53 activation, cherry pick confirmation” value in data set [4] is “inactive”. Also, the “Efficacy, p53 activation, cherry pick confirmation” value in data set [4] is “inactive”. Moreover, in data set [6], the “Depletion after 16 h of incubation with cells” value (from here on “Depletion after 16 h”) came to 46.53 ± 5.89%.
Consider `CCOP(=S)(NC(C)C)Oc1ccccc1C(=O)OC(C)C` (stereo not shown) [Isofenphos], for which, in the data set with p53RE-bla HCT-116 cells, the “Viability EC50, cherry pick confirmation” value is “inactive”; the “Viability EC50, primary screening” value was “inactive”; the “Viability efficacy, cherry pick confirmation” value is “inactive”; the “Viability efficacy, primary screening” value was “inactive”. Besides, in data set [1], the half-maximal effective concentration (EC50) is 0.81 µM and the Emax is 54.3%. In data set [2], the “p53 activation EC50, cherry pick confirmation” value was “inactive”; the “p53 activation EC50, primary screening” value was “inactive”; the “p53 activation efficacy, cherry pick confirmation” value was “inactive”; the “p53 activation efficacy, primary screening” value is “inactive”. Also, the half-life in the data set “in vitro” was determined as 1.25 ± 0.47 min. For the same compound, the half-maximal effective concentration (EC50) result in data set [3] is listed as “Inactive”. Moreover, in [4], the “p53 activation EC50, cherry pick confirmation” value was “inactive” and the “p53 activation efficacy, cherry pick confirmation” value is “inactive”. Also, a half-maximal effect in [5] (HCT-116) (EC50) was put at 0.75 µM. The Emax in data set [5] (HCT-116, read-out: efficacy) is 42.6%. Also, the half-maximal effective concentration (EC50) in [5] (setting [9]) was found to be 0.777 µM. In addition, in data set [5] (setting [10]), the Emax amounted to 42.6%. Moreover, the “Depletion after 16 h” value in [6] is recorded as 88.45 ± 1.49%.
`O=C1CC2(CCCC2)CC(=O)N1CCCCN1CCN(c2ncccn2)CC1` [buspirone, reference compound]: in the data set “in vitro”, the half-life amounted to 7.2 ± 2.3 min.
Still for that read-out and setting: under `CCOP(=S)(OCC)SCSCC` [Phorate] stands 104 ± 22.4 min.
Consider `COP(=S)(OC)Oc1cc(Cl)c(I)cc1Cl` [Iodenphos], for which the “Viability EC50” value with p53RE-bla HCT-116 cells is “inactive”. In addition, in the data set with p53RE-bla HCT-116 cells, the Viability efficacy result is “inactive”. In addition, the Emax was 54.2% in data set [7] (HCT-116, read-out: p53 activation efficacy) and 84.9% in data set [5] (HCT-116, read-out: efficacy). The EC50 in data set [1] is 37 µM; in data set [8] (read-out: p53 activation EC50), 26.6 µM; in [3] (Homo sapiens, HCT-116, 0.5 h), 24.2 µM; in [5] (HCT-116) it was 32.2 µM. The p53 activation efficacy in [8] was 81.587 and 107.715; in [2], “inactive”. The “p53 activation EC50” value in [2] and in data set [4] was “inactive” in each case. Besides, the “Depletion after 16 h” value in data set [6] is 99.99 ± 0%.
Take `CCOP(=O)(NC(C)C)Oc1ccc(SC)c(C)c1` (stereo not shown) [Fenamiphos]: in the data set on p53RE-bla HCT-116 cells, the “Viability EC50, HLM” value was “inactive”; the “Viability EC50, No MS” value is “inactive”; the “Viability EC50, RLM” value is “inactive”; the “Viability Efficacy, HLM” value was “inactive”. Further, in the data set with p53RE-bla HCT-116 cells, the “Viability Efficacy, No MS” value was “inactive” and the “Viability Efficacy, RLM” value is “inactive”. In [7] (setting [11]), the EC50 was determined as 1.49 µM. For the same compound, in data set [1], the efficacy is on record as 1.34 ± 0.33 ( 75.12 ± 11.54 ) % and the EC50 was 1.34 µM. Also, the concentration for a half-maximal effect (EC50) in data set [8] (read-out: p53 activation EC50, RLM) stood at 0.958 µM. In data set [2], the “p53 activation EC50, No MS” value was “inactive” and the “p53 activation Efficacy, No MS” value was “inactive”. In addition, the efficacy in data set [3] is on record as 0.37 ± 0.15 ( 33.54 ± 3.04 ) %. In data set [3] (Homo sapiens, HCT-116, 0.5 h), this compound returned an EC50 of 0.37 µM. Further, the “p53 activation EC50, HLM” value in data set [4] was “inactive”. In data set [5] (HCT-116), this compound returned an EC50 of 1.5 µM. The half-maximal effective concentration (EC50) in data set [5] (HCT-116, read-out: p53 activation EC50, RLM) was 1.55 µM. Also, the “Depletion after 16 h” value in data set [6] was 99.41 ± 0.07%.
`OCCN(CCO)c1nc(N2CCCCC2)c2nc(N(CCO)CCO)nc(N3CCCCC3)c2n1` [Dipyridamole, reference compound]: the concentration giving a half-maximal response (EC50) in data set [1] was found to be 5.28 µM; in data set [3] (Homo sapiens, HCT-116, 0.5 h) it was 4.36 µM. Moreover, in the data set “in vitro”, the half-life stood at 7.32 ± 0.59 min. In addition, the Emax in data set [3] (Homo sapiens, HCT-116, read-out: efficacy) is 174%.
As to `CCOP(=S)(OCC)Oc1ccc([N+](=O)[O-])cc1` [Parathion], in the data set with p53RE-bla HCT-116 cells, the “Viability EC50, HLM” value is “inactive”; the “Viability EC50, No MS” value is “inactive”; the “Viability EC50, RLM” value is “inactive”; the “Viability Efficacy, HLM” value is “inactive”. In the data set with p53RE-bla HCT-116 cells, the “Viability Efficacy, No MS” value was “inactive” and the “Viability Efficacy, RLM” value was “inactive”. Besides, the EC50 in data set [7] (setting [11]) was 1.2 µM. In data set [1], the EC50 is 1.45 µM and the Emax was 35.6%. Also, in data set [2], the “p53 activation EC50, No MS” value was “inactive” and the “p53 activation Efficacy, No MS” value was “inactive”. Further, the EC50 entry in data set [3] is given as “Inactive”. The “p53 activation EC50, HLM” value in data set [4] is “inactive”. A half-maximal response in [5] (HCT-116) (EC50) required 1.11 µM. In data set [5] (HCT-116, read-out: efficacy), the Emax was 36.3%. Further, the “Depletion after 16 h” value in [6] is on record as 98.86 ± 0.34%.
Take `Cc1nc(N(C)C)nc(OC(=O)N(C)C)c1C` [Pirimicarb]: the half-life in the data set “in vitro” stood at 11.7 ± 0.52 min.
The compound `CCOP(=O)(SC(C)CC)N1CCSC1=O` (stereo not shown) [Fosthiazate] showed a half-life in “in vitro” of 15.2 ± 1.93 min.
For the compound `COP(=S)(OC)SCn1nnc2ccccc2c1=O` [Azinphos-methyl], in the data set on p53RE-bla HCT-116 cells, the “Viability EC50” value was “inactive”. The Viability efficacy entry with p53RE-bla HCT-116 cells was “inactive”. Moreover, the EC50 in data set [7] (HCT-116, read-out: p53 activation EC50) amounted to 14.9 µM; in data set [1], 7.29 µM; in data set [3] (Homo sapiens, HCT-116, 0.5 h) it was 6.6 µM; in data set [5] (HCT-116), 11.6 µM. Also, the efficacy is on record as 7.29 ± 2.15 ( 104.64 ± 29.38 ) % in [1] and 6.6 ± 0.91 ( 57.05 ± 12.27 ) % in [3]. Besides, the p53 activation efficacy was 77.2775 and 58.65 in data set [8]; “inactive” in data set [2]. Also, the “p53 activation EC50” value in data set [2] and in data set [4] was “inactive” each time. In addition, the “Depletion after 16 h” value in [6] stood at 94.04 ± 0.16%.
Regarding `c1ccc2c(c1)[nH]c1cnccc12` [Norharman], the “Viability EC50, cherry pick confirmation” value in the data set on p53RE-bla HCT-116 cells was “inactive”. In the data set with p53RE-bla HCT-116 cells, the “Viability EC50, primary screening” value is “inactive”. For the same compound, the “Viability efficacy, cherry pick confirmation” value in the data set on p53RE-bla HCT-116 cells was “inactive”. Further, the “Viability efficacy, primary screening” value in the data set on p53RE-bla HCT-116 cells was “inactive”. The concentration for a half-maximal effect (EC50) in [1] was 20 µM; in data set [2] (Homo sapiens, HCT-116, read-out: p53 activation EC50, primary screening), 41.4 µM; in [3], “Inactive”; in data set [5] (HCT-116) it was 28.1 µM; in data set [5] (setting [9]), 29.6 µM; in data set [5] (HCT-116, read-out: p53 activation EC50, primary screening), 32.6 µM. For the same compound, the Emax is 76.4% in [1]; 73.8% in data set [5] (HCT-116, read-out: efficacy); 71% in [5] (setting [10]). Moreover, the “p53 activation EC50, cherry pick confirmation” value in data set [2] and in data set [4] was “inactive” in each case. The “p53 activation efficacy, cherry pick confirmation” value in [2] and in [4] was “inactive” in each case. Moreover, the “p53 activation EC50, primary screening” value in data set [4] is “inactive”. Moreover, the “p53 activation efficacy, primary screening” value in [4] is “inactive”. Besides, the “Depletion after 16 h” value in [6] came to 85.03 ± 0.42%.
For the compound `Cc1cc(=O)n(-c2ccccc2)n1C` [antipyrine, reference compound], in “in vitro”, the half-life was above 120 min.
